Publication PMC5540273, “Progress towards a public chemogenomic set for protein kinases and a call for contributions” (PLoS ONE, 2017)

Each molecule was assayed against T1, GRK2 (Homo sapiens, UniProt P25098) (assay: KINOMEscan competition binding). Settings: read-out: %Inh GRK2.
T1 sequence (P25098 1-689): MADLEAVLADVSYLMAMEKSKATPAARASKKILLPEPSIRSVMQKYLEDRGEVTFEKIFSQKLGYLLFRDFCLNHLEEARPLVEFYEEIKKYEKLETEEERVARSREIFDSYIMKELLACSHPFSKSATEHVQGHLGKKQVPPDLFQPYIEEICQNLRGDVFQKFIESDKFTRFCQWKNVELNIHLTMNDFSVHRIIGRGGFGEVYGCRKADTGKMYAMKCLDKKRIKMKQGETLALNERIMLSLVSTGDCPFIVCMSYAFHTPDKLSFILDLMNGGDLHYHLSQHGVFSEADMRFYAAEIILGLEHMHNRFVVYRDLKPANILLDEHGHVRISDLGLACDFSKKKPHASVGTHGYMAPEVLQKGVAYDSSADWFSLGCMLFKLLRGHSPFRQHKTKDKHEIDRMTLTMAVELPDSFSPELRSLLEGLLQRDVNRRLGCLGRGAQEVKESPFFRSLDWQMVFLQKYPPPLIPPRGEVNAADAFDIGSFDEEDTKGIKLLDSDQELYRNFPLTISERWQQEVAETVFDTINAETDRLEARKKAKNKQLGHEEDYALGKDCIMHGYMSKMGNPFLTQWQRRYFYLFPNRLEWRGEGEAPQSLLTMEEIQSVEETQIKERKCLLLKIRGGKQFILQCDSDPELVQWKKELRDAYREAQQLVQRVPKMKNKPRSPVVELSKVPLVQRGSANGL

| Structure (SMILES) | inhibition at 1 µM [%] |
| --- | --- |
| O=c1cc(N2CCOCC2)nc2n(Cc3cccc(Cl)c3Cl)c(C3CC3)nn12 [UNC10225469A] | 0 |
| Cn1cc(-c2cnc(N)c3c(-c4ccc5c(c4)CCN5C(=O)Cc4ccccc4)csc23)cn1 [UNC10225012A] | 0 |
| CS(=O)(=O)Cc1ccc(Nc2nccc(-c3c(-c4cccc(NC(=O)C5CCCCC5)c4)nn4ncccc34)n2)cc1 [UNC10225159A] | 44 |
| COc1cccc(OC)c1C(=O)Nc1cccc(-c2nn3ccccc3c2-c2ccnc(Nc3cccc(F)c3)n2)c1 [UNC10225310A] | 0 |
| Cc1ccc(NC(=O)Nc2cccc(C(F)(F)F)c2)cc1 [UNC10225187A] | 0 |

The molecules below were run against FGFR2 (Homo sapiens, UniProt P21802) (assay: KINOMEscan competition binding). Settings: read-out: %Inh FGFR2.
Sequence of FGFR2 (P21802 22-821): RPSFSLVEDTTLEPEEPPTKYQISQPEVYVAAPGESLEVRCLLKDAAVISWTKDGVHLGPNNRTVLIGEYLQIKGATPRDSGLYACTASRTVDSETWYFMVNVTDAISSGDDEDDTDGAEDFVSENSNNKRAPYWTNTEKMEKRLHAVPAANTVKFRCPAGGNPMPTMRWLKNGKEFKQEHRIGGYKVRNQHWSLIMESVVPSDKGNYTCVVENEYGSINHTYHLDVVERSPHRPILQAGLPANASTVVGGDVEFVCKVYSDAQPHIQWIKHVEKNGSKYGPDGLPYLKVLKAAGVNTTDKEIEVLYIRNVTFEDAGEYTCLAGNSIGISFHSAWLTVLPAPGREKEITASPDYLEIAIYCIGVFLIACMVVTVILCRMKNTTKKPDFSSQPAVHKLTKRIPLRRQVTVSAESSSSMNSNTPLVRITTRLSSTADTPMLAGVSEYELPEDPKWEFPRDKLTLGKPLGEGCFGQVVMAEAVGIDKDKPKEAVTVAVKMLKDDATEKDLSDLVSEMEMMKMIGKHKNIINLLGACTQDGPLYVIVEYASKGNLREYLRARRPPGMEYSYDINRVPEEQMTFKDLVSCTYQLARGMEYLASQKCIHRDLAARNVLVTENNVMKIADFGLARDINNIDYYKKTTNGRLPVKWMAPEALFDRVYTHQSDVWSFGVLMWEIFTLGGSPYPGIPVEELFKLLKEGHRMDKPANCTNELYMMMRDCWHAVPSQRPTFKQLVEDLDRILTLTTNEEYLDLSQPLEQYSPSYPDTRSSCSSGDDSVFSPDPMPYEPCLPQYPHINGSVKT

| Structure (SMILES) | inhibition at 1 µM [%] |
| --- | --- |
| O=c1cc(N2CCOCC2)nc2n(Cc3cccc(Cl)c3Cl)c(C3CC3)nn12 [UNC10225469A] | 1 |
| Cn1cc(-c2cnc(N)c3c(-c4ccc5c(c4)CCN5C(=O)Cc4ccccc4)csc23)cn1 [UNC10225012A] | 40 |
| CS(=O)(=O)Cc1ccc(Nc2nccc(-c3c(-c4cccc(NC(=O)C5CCCCC5)c4)nn4ncccc34)n2)cc1 [UNC10225159A] | 41 |
| COc1cccc(OC)c1C(=O)Nc1cccc(-c2nn3ccccc3c2-c2ccnc(Nc3cccc(F)c3)n2)c1 [UNC10225310A] | 0 |
| Cc1ccc(NC(=O)Nc2cccc(C(F)(F)F)c2)cc1 [UNC10225187A] | 0 |

What follows are molecules tested against DAPK1 (Homo sapiens, UniProt P53355) (assay: KINOMEscan competition binding). Settings: read-out: %Inh DAPK1.
Sequence of DAPK1 (P53355 whole entry): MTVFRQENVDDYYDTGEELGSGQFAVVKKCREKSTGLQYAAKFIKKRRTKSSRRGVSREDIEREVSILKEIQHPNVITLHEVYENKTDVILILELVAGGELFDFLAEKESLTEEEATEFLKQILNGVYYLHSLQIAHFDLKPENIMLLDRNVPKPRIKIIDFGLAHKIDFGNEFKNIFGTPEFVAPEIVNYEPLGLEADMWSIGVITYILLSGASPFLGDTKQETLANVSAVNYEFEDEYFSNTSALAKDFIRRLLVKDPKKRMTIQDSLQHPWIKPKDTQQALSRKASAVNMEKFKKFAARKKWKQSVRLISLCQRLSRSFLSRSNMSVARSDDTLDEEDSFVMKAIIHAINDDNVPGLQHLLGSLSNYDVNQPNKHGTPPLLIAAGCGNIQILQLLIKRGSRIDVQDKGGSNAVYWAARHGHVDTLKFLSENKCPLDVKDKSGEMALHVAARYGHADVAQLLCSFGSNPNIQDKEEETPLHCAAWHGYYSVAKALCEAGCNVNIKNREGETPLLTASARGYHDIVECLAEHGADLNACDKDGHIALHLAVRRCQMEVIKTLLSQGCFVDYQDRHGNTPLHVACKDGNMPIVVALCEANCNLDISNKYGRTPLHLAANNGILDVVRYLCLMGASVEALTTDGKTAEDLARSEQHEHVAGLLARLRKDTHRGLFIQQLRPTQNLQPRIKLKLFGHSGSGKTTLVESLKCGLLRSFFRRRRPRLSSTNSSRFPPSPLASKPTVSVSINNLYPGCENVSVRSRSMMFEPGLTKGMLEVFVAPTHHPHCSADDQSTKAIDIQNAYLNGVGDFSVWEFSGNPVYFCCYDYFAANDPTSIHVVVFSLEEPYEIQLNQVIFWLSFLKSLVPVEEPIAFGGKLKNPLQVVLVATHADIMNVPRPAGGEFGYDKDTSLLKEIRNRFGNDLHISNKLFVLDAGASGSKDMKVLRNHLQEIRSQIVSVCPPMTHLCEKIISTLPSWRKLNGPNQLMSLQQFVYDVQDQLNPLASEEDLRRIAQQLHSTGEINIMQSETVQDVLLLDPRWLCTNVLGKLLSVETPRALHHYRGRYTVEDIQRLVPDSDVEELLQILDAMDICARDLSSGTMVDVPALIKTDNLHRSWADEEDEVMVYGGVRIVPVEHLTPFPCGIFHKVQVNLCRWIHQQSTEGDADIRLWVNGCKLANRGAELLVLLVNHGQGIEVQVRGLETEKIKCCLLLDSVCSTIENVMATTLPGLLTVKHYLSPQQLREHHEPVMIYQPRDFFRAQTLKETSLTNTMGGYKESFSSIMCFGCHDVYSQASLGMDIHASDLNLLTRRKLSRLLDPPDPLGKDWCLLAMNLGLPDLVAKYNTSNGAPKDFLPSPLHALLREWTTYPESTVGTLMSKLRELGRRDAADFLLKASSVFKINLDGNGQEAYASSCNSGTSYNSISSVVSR

| Structure (SMILES) | inhibition at 1 µM [%] |
| --- | --- |
| O=c1cc(N2CCOCC2)nc2n(Cc3cccc(Cl)c3Cl)c(C3CC3)nn12 [UNC10225469A] | 26 |
| Cn1cc(-c2cnc(N)c3c(-c4ccc5c(c4)CCN5C(=O)Cc4ccccc4)csc23)cn1 [UNC10225012A] | 38 |
| CS(=O)(=O)Cc1ccc(Nc2nccc(-c3c(-c4cccc(NC(=O)C5CCCCC5)c4)nn4ncccc34)n2)cc1 [UNC10225159A] | 0 |
| COc1cccc(OC)c1C(=O)Nc1cccc(-c2nn3ccccc3c2-c2ccnc(Nc3cccc(F)c3)n2)c1 [UNC10225310A] | 10 |
| Cc1ccc(NC(=O)Nc2cccc(C(F)(F)F)c2)cc1 [UNC10225187A] | 18 |

What follows are molecules tested against T2, ITK (Homo sapiens, UniProt Q08881) (assay: KINOMEscan competition binding). Settings: read-out: %Inh ITK.
T2 sequence (Q08881 1-620): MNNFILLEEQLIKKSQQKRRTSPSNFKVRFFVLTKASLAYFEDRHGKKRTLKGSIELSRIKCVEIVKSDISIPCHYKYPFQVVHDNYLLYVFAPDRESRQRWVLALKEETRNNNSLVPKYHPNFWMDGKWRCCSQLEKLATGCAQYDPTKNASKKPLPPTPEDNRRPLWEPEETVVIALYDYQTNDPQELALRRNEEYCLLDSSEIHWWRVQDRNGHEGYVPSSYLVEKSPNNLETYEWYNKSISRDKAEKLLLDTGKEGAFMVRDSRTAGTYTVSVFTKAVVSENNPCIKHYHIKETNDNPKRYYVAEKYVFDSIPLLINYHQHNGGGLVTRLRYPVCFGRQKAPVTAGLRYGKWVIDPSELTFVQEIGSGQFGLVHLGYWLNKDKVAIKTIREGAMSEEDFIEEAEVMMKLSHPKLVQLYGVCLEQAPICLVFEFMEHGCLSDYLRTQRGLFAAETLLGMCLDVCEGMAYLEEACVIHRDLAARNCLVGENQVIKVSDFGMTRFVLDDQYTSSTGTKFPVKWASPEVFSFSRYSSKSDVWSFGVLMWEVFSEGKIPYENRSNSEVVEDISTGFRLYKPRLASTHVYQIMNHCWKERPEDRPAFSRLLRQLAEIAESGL

| Structure (SMILES) | inhibition at 1 µM [%] |
| --- | --- |
| O=c1cc(N2CCOCC2)nc2n(Cc3cccc(Cl)c3Cl)c(C3CC3)nn12 [UNC10225469A] | 4 |
| Cn1cc(-c2cnc(N)c3c(-c4ccc5c(c4)CCN5C(=O)Cc4ccccc4)csc23)cn1 [UNC10225012A] | 23 |
| CS(=O)(=O)Cc1ccc(Nc2nccc(-c3c(-c4cccc(NC(=O)C5CCCCC5)c4)nn4ncccc34)n2)cc1 [UNC10225159A] | 6 |
| COc1cccc(OC)c1C(=O)Nc1cccc(-c2nn3ccccc3c2-c2ccnc(Nc3cccc(F)c3)n2)c1 [UNC10225310A] | 93.8 |
| Cc1ccc(NC(=O)Nc2cccc(C(F)(F)F)c2)cc1 [UNC10225187A] | 12 |

Each molecule was assayed against DMPK2 (Homo sapiens, UniProt Q6DT37) (assay: KINOMEscan competition binding). Settings: read-out: %Inh DMPK2.
Sequence of DMPK2 (Q6DT37 whole entry): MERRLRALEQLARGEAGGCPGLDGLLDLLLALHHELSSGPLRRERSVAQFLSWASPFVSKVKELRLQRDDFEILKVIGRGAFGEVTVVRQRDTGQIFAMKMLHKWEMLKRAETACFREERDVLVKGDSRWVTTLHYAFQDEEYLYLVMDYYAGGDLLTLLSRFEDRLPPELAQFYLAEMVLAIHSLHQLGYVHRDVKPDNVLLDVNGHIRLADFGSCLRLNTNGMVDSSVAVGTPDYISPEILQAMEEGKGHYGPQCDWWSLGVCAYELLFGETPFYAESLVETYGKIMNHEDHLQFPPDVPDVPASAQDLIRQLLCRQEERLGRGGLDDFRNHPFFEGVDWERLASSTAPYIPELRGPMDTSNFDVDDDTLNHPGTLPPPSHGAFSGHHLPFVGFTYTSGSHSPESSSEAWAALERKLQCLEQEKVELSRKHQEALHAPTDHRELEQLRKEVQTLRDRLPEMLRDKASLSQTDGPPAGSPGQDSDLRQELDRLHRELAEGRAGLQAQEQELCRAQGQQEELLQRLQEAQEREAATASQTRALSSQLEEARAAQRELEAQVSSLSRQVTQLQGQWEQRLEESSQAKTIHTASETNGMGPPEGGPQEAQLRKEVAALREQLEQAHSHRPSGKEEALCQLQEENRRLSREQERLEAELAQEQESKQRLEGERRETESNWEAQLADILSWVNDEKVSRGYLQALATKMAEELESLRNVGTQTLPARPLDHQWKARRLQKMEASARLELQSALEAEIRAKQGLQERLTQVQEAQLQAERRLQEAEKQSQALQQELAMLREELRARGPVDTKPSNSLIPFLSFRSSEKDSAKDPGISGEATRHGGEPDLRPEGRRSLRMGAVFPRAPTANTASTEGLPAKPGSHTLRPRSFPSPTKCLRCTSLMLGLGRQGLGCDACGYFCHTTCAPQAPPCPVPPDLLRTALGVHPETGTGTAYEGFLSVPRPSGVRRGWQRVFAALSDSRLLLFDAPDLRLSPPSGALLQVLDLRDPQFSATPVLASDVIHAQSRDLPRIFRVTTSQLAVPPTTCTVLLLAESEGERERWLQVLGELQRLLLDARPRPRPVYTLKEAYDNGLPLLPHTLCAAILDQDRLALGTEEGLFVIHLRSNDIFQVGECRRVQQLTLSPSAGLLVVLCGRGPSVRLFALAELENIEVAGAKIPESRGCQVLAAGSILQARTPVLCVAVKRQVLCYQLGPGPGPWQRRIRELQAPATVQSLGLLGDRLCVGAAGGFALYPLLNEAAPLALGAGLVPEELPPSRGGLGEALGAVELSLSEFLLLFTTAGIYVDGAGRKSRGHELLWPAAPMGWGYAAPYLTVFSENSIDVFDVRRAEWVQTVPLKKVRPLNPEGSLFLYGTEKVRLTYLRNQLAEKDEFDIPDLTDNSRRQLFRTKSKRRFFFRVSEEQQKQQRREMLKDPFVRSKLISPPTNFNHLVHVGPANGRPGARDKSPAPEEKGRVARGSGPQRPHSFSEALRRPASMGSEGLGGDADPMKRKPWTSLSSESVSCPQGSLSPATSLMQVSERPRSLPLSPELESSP

| Structure (SMILES) | inhibition at 1 µM [%] |
| --- | --- |
| O=c1cc(N2CCOCC2)nc2n(Cc3cccc(Cl)c3Cl)c(C3CC3)nn12 [UNC10225469A] | 0 |
| Cn1cc(-c2cnc(N)c3c(-c4ccc5c(c4)CCN5C(=O)Cc4ccccc4)csc23)cn1 [UNC10225012A] | 81 |
| CS(=O)(=O)Cc1ccc(Nc2nccc(-c3c(-c4cccc(NC(=O)C5CCCCC5)c4)nn4ncccc34)n2)cc1 [UNC10225159A] | 35 |
| COc1cccc(OC)c1C(=O)Nc1cccc(-c2nn3ccccc3c2-c2ccnc(Nc3cccc(F)c3)n2)c1 [UNC10225310A] | 84 |
| Cc1ccc(NC(=O)Nc2cccc(C(F)(F)F)c2)cc1 [UNC10225187A] | 0 |

The molecules below were run against BLK (Homo sapiens, UniProt P51451) (assay: KINOMEscan competition binding). Settings: read-out: %Inh BLK.
Sequence of BLK (P51451 whole entry): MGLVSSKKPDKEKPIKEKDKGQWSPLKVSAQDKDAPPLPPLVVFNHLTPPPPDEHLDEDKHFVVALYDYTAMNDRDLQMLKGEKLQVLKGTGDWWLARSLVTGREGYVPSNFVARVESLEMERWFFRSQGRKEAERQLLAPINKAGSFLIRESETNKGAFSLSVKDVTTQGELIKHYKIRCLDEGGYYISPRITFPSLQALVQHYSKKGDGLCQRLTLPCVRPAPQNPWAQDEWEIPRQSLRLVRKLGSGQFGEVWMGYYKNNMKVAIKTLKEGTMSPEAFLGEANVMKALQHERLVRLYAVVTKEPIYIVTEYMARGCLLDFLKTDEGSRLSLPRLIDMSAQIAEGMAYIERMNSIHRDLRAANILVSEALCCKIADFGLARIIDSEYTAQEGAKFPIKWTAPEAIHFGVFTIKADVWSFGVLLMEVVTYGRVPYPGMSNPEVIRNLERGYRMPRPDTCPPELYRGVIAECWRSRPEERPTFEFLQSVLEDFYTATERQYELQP

| Structure (SMILES) | inhibition at 1 µM [%] |
| --- | --- |
| O=c1cc(N2CCOCC2)nc2n(Cc3cccc(Cl)c3Cl)c(C3CC3)nn12 [UNC10225469A] | 0 |
| Cn1cc(-c2cnc(N)c3c(-c4ccc5c(c4)CCN5C(=O)Cc4ccccc4)csc23)cn1 [UNC10225012A] | 93 |
| CS(=O)(=O)Cc1ccc(Nc2nccc(-c3c(-c4cccc(NC(=O)C5CCCCC5)c4)nn4ncccc34)n2)cc1 [UNC10225159A] | 0 |
| COc1cccc(OC)c1C(=O)Nc1cccc(-c2nn3ccccc3c2-c2ccnc(Nc3cccc(F)c3)n2)c1 [UNC10225310A] | 41 |
| Cc1ccc(NC(=O)Nc2cccc(C(F)(F)F)c2)cc1 [UNC10225187A] | 0 |

Each molecule was assayed against T3, ASK1 (Homo sapiens, UniProt Q99683) (assay: KINOMEscan competition binding). Settings: read-out: %Inh ASK1.
T3 sequence (Q99683 1-1374): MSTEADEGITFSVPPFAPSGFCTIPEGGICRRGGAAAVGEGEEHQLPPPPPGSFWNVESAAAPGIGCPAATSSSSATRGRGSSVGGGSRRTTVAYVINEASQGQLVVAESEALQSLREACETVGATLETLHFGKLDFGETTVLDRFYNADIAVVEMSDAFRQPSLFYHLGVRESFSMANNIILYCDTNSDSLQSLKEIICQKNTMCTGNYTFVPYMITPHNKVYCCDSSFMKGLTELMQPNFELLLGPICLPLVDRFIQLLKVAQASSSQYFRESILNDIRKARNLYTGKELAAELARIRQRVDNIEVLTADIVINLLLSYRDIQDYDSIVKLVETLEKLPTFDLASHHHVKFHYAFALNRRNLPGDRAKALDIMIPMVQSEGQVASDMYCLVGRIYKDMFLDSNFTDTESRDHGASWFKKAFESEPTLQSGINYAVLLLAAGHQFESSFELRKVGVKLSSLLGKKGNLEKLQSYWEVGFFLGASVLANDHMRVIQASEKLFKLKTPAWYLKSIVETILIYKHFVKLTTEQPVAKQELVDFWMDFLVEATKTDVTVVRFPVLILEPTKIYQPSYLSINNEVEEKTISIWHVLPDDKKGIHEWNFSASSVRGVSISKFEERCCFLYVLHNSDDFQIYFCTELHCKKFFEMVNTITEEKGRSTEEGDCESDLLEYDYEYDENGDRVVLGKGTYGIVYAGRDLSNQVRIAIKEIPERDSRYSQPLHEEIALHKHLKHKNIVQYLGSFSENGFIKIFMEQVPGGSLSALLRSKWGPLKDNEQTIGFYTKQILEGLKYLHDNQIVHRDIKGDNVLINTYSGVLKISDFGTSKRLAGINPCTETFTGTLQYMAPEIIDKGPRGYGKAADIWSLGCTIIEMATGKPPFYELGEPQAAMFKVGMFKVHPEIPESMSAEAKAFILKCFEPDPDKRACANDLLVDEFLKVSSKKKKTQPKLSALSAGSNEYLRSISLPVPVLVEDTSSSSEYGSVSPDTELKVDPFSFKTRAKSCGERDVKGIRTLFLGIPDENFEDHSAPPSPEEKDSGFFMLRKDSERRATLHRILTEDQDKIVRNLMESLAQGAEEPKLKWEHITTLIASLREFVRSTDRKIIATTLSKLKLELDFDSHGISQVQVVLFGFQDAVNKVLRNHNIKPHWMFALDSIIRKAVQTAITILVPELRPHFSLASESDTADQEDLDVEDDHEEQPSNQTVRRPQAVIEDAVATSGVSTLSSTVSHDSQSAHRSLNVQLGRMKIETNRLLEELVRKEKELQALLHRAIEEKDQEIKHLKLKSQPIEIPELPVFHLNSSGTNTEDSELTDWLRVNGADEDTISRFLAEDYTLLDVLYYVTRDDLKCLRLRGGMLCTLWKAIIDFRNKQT

| Structure (SMILES) | inhibition at 1 µM [%] |
| --- | --- |
| O=c1cc(N2CCOCC2)nc2n(Cc3cccc(Cl)c3Cl)c(C3CC3)nn12 [UNC10225469A] | 0 |
| Cn1cc(-c2cnc(N)c3c(-c4ccc5c(c4)CCN5C(=O)Cc4ccccc4)csc23)cn1 [UNC10225012A] | 21 |
| CS(=O)(=O)Cc1ccc(Nc2nccc(-c3c(-c4cccc(NC(=O)C5CCCCC5)c4)nn4ncccc34)n2)cc1 [UNC10225159A] | 0 |
| COc1cccc(OC)c1C(=O)Nc1cccc(-c2nn3ccccc3c2-c2ccnc(Nc3cccc(F)c3)n2)c1 [UNC10225310A] | 22 |
| Cc1ccc(NC(=O)Nc2cccc(C(F)(F)F)c2)cc1 [UNC10225187A] | 20 |
